From patent US20220323406A1, “METHODS AND COMPOSITIONS FOR DIFFERENTIATING STEM CELLS” (Massachusetts Institute of Technology, priority 2019, published 2022) come the findings set out here.

Details in all cases: primary screen
Assay [1] concerns ENR+CD organoids (ISC to Paneth cell differentiation). Briefly: Primary screen: CCh-stimulated lysozyme secretion LYZ.S, 2.5-D 384-well ENR+CD organoid differentiation. The class given is cell-based, mouse. From the text: (§1) High-throughput screening.
The test system is the same in assay [2]. Briefly: Primary screen: basal (non-stimulated) lysozyme secretion LYZ.NS, 2.5-D 384-well ENR+CD organoid differentiation. The assay is classed as cell-based, mouse.
Description: as §1

A further assay deals with ENR+CD organoids. As to the kind of experiment: Primary screen: ATP (CellTiter-Glo 3D, CTG) cell number/viability, 2.5-D 384-well ENR+CD organoids.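 Further: compounds given at plating and again on day 3 over a 6-day differentiation from ENR+CV stem-cell-enriched precursors, ATP measured on day 6, plate median as control.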 Background: Cellular ATP, detected with luciferase, serves as a proxy for viable cell number.
The mark [3] stands for this setting: 1st dose row of the treatment (0.08 uM by row order; dose not reprinted).
[4] abbreviates: 2nd dose row of the treatment (0.40 uM by row order; dose not reprinted).
Setting [5] is: 3rd dose row of the treatment (2.00 uM by row order; dose not reprinted).
Where [6] appears, read: 4th dose row of the treatment (10.00 uM by row order; dose not reprinted).

For `COc1cc2ncnc(Nc3ccc(Cl)cc3F)c2cc1OC` [ZM 306416], the Dose.FC.LYZ.S in assay [1] (dose 0.08 uM) is given as 0.006 log2 fold change; in assay [1] (dose 0.40 uM), −0.288 log2 fold change; in assay [1] (dose 2.00 uM), −0.403 log2 fold change; in assay [1] (dose 10.00 uM) it was −0.431 log2 fold change. Further, the Dose.FC.LYZ.NS in assay [2] (dose 0.08 uM) is recorded as 0.105 log2 fold change; in assay [2] (dose 0.40 uM) it was −0.223 log2 fold change; in assay [2] (dose 2.00 uM), −0.291 log2 fold change; in assay [2] (dose 10.00 uM), −0.275 log2 fold change. For the same molecule, the “Z.LYZ.NS (standard z score)” value in assay [2] (dose 0.08 uM) is 0.912; in assay [2] (dose 0.40 uM), −1.942; in assay [2] (dose 2.00 uM), −2.531; in assay [2] (dose 10.00 uM), −2.395. The Dose.FC.CTG in the assay on ENR+CD organoids (dose 0.08 uM) was −0.080 log2 fold change; with ENR+CD organoids (dose 0.40 uM), −0.483 log2 fold change; with ENR+CD organoids (dose 2.00 uM) it was −1.312 log2 fold change; in the assay on ENR+CD organoids (dose 10.00 uM), −1.490 log2 fold change. In addition, the “Z.CTG (standard z score)” value is −0.190 in the assay on ENR+CD organoids (dose 0.08 uM), −1.155 with ENR+CD organoids (dose 0.40 uM), −3.135 in the assay on ENR+CD organoids (dose 2.00 uM) and −3.559 in the assay on ENR+CD organoids (dose 10.00 uM).

In the case of `COc1cc2c(Nc3ccc(NC(=O)c4ccccc4)cc3)ncnc2cc1OCCCN1CCOCC1` [ZM 447439], the Dose.FC.LYZ.S was 0.171 log2 fold change in assay [1] (dose 0.08 uM), 0.108 log2 fold change in assay [1] (dose 0.40 uM), 0.074 log2 fold change in assay [1] (dose 2.00 uM) and −0.132 log2 fold change in assay [1] (dose 10.00 uM). Moreover, the Dose.FC.LYZ.NS is 0.103 log2 fold change in assay [2] (dose 0.08 uM), 0.107 log2 fold change in assay [2] (dose 0.40 uM), 0.052 log2 fold change in assay [2] (dose 2.00 uM) and −0.080 log2 fold change in assay [2] (dose 10.00 uM). The “Z.LYZ.NS (standard z score)” value in assay [2] (dose 0.08 uM) is recorded as 0.896; in assay [2] (dose 0.40 uM), 0.932; in assay [2] (dose 2.00 uM) it was 0.456; in assay [2] (dose 10.00 uM), −0.695. Further, the Dose.FC.CTG is 0.512 log2 fold change in the assay with ENR+CD organoids (dose 0.08 uM), 0.304 log2 fold change in the assay with ENR+CD organoids (dose 0.40 uM), 0.231 log2 fold change in the assay with ENR+CD organoids (dose 2.00 uM) and −0.240 log2 fold change in the assay with ENR+CD organoids (dose 10.00 uM). The “Z.CTG (standard z score)” value was 1.222 with ENR+CD organoids (dose 0.08 uM), 0.725 with ENR+CD organoids (dose 0.40 uM), 0.552 in the assay with ENR+CD organoids (dose 2.00 uM) and −0.574 in the assay with ENR+CD organoids (dose 10.00 uM).

`O=c1ncccn1[C@@H]1O[C@H](CO)[C@@H](O)[C@H]1O` [Zebularine]: the Dose.FC.LYZ.S came to 0.092 log2 fold change in assay [1] (dose 0.08 uM), 0.077 log2 fold change in assay [1] (dose 0.40 uM), 0.051 log2 fold change in assay [1] (dose 2.00 uM) and 0.102 log2 fold change in assay [1] (dose 10.00 uM). For the same molecule, the Dose.FC.LYZ.NS is given as 0.026 log2 fold change in assay [2] (dose 0.08 uM), 0.009 log2 fold change in assay [2] (dose 0.40 uM), 0.095 log2 fold change in assay [2] (dose 2.00 uM) and 0.086 log2 fold change in assay [2] (dose 10.00 uM). Further, the “Z.LYZ.NS (standard z score)” value in assay [2] (dose 0.08 uM) was 0.223; in assay [2] (dose 0.40 uM), 0.075; in assay [2] (dose 2.00 uM) it was 0.828; in assay [2] (dose 10.00 uM), 0.749. The Dose.FC.CTG in the assay with ENR+CD organoids (dose 0.08 uM) is recorded as 0.035 log2 fold change; with ENR+CD organoids (dose 0.40 uM) it was 0.000 log2 fold change; with ENR+CD organoids (dose 2.00 uM) it was −0.089 log2 fold change; in the assay with ENR+CD organoids (dose 10.00 uM), −0.167 log2 fold change.

In the case of `COc1nc(C)cnc1NS(=O)(=O)c1cccnc1-c1ccc(-c2nnco2)cc1` [Zibotentan (ZD4054)], the Dose.FC.LYZ.S in assay [1] (dose 0.08 uM) was 0.168 log2 fold change; in assay [1] (dose 0.40 uM) it was 0.130 log2 fold change; in assay [1] (dose 2.00 uM), −0.038 log2 fold change; in assay [1] (dose 10.00 uM), 0.050 log2 fold change. Further, the Dose.FC.LYZ.NS in assay [2] (dose 0.08 uM) is 0.094 log2 fold change; in assay [2] (dose 0.40 uM), 0.054 log2 fold change; in assay [2] (dose 2.00 uM), −0.003 log2 fold change; in assay [2] (dose 10.00 uM) it was 0.101 log2 fold change. Also, the “Z.LYZ.NS (standard z score)” value in assay [2] (dose 0.08 uM) is 0.820; in assay [2] (dose 0.40 uM) it was 0.474; in assay [2] (dose 2.00 uM), −0.029; in assay [2] (dose 10.00 uM) it was 0.877. Moreover, the Dose.FC.CTG is given as 0.104 log2 fold change with ENR+CD organoids (dose 0.08 uM), −0.009 log2 fold change in the assay on ENR+CD organoids (dose 0.40 uM), −0.768 log2 fold change in the assay on ENR+CD organoids (dose 2.00 uM) and −0.001 log2 fold change in the assay with ENR+CD organoids (dose 10.00 uM). The “Z.CTG (standard z score)” value with ENR+CD organoids (dose 0.08 uM) is 0.249; in the assay with ENR+CD organoids (dose 0.40 uM), −0.022; in the assay with ENR+CD organoids (dose 2.00 uM), −1.834; in the assay with ENR+CD organoids (dose 10.00 uM) it was −0.003.

Consider `Cl.Cl.Cl.O[C@@H](COc1cccc2ncccc12)CN1CCN([C@@H]2c3ccccc3[C@@H]3[C@H](c4ccccc42)C3(F)F)CC1` [Zosuquidar (LY335979) 3HCl], for which the Dose.FC.LYZ.S is given as 0.124 log2 fold change in assay [1] (dose 0.08 uM), 0.127 log2 fold change in assay [1] (dose 0.40 uM), 0.129 log2 fold change in assay [1] (dose 2.00 uM) and −0.200 log2 fold change in assay [1] (dose 10.00 uM). The Dose.FC.LYZ.NS is on record as 0.096 log2 fold change in assay [2] (dose 0.08 uM), 0.080 log2 fold change in assay [2] (dose 0.40 uM), 0.207 log2 fold change in assay [2] (dose 2.00 uM) and −0.209 log2 fold change in assay [2] (dose 10.00 uM). Also, the “Z.LYZ.NS (standard z score)” value in assay [2] (dose 0.08 uM) was 0.839; in assay [2] (dose 0.40 uM), 0.696; in assay [2] (dose 2.00 uM), 1.802; in assay [2] (dose 10.00 uM) it was −1.821. In addition, the Dose.FC.CTG is 0.017 log2 fold change with ENR+CD organoids (dose 0.08 uM), 0.197 log2 fold change in the assay with ENR+CD organoids (dose 0.40 uM), 0.276 log2 fold change in the assay on ENR+CD organoids (dose 2.00 uM) and −0.193 log2 fold change in the assay with ENR+CD organoids (dose 10.00 uM). The “Z.CTG (standard z score)” value was 0.041 in the assay on ENR+CD organoids (dose 0.08 uM), 0.470 in the assay on ENR+CD organoids (dose 0.40 uM), 0.659 in the assay with ENR+CD organoids (dose 2.00 uM) and −0.461 in the assay on ENR+CD organoids (dose 10.00 uM).

For (−)-MK 801 Maleate, the “SSMD.LYZ.S_Rep (strictly standardized mean difference)” value is on record as 0.116 in assay [1] (setting [3]), −0.976 in assay [1] (setting [4]), −1.187 in assay [1] (setting [5]) and −1.768 in assay [1] (setting [6]). Moreover, the “Z.LYZ.S (standard z score)” value in assay [1] (setting [3]) is 0.099; in assay [1] (setting [4]), −1.159; in assay [1] (setting [5]), −2.160; in assay [1] (setting [6]), −2.604. Moreover, the Dose.FC.LYZ.S in assay [1] (dose 0.08 uM) is recorded as 0.015 log2 fold change; in assay [1] (dose 0.40 uM) it was −0.179 log2 fold change; in assay [1] (dose 2.00 uM), −0.334 log2 fold change; in assay [1] (dose 10.00 uM), −0.403 log2 fold change. Moreover, the “SSMD.LYZ.NS_Rep (strictly standardized mean difference)” value in assay [2] (setting [3]) was 0.070; in assay [2] (setting [4]) it was −0.550; in assay [2] (setting [5]), −1.315; in assay [2] (setting [6]), −1.708. Besides, the Dose.FC.LYZ.NS is recorded as 0.008 log2 fold change in assay [2] (dose 0.08 uM), −0.099 log2 fold change in assay [2] (dose 0.40 uM), −0.256 log2 fold change in assay [2] (dose 2.00 uM) and −0.259 log2 fold change in assay [2] (dose 10.00 uM). Further, the “Z.LYZ.NS (standard z score)” value in assay [2] (dose 0.08 uM) is 0.072; in assay [2] (dose 0.40 uM), −0.864; in assay [2] (dose 2.00 uM), −2.227; in assay [2] (dose 10.00 uM) it was −2.255. Also, the “SSMD.CTG.Rep (strictly standardized mean difference)” value with ENR+CD organoids (setting [3]) is given as 0.442; in the assay with ENR+CD organoids (setting [4]), −1.342; in the assay on ENR+CD organoids (setting [5]), −1.102; in the assay with ENR+CD organoids (setting [6]), −1.696. Further, the Dose.FC.CTG was 0.127 log2 fold change with ENR+CD organoids (dose 0.08 uM), −0.377 log2 fold change with ENR+CD organoids (dose 0.40 uM), −0.702 log2 fold change in the assay with ENR+CD organoids (dose 2.00 uM) and −0.936 log2 fold change in the assay on ENR+CD organoids (dose 10.00 uM). The “Z.CTG (standard z score)” value is on record as 0.303 with ENR+CD organoids (dose 0.08 uM), −0.899 with ENR+CD organoids (dose 0.40 uM), −1.677 in the assay on ENR+CD organoids (dose 2.00 uM) and −2.236 with ENR+CD organoids (dose 10.00 uM).

Consider BAM7, for which the Dose.FC.LYZ.S in assay [1] (dose 0.08 uM) was 0.079 log2 fold change; in assay [1] (dose 0.40 uM), 0.039 log2 fold change; in assay [1] (dose 2.00 uM) it was 0.019 log2 fold change; in assay [1] (dose 10.00 uM), −0.020 log2 fold change. The Dose.FC.LYZ.NS is listed as 0.045 log2 fold change in assay [2] (dose 0.08 uM), −0.009 log2 fold change in assay [2] (dose 0.40 uM), 0.057 log2 fold change in assay [2] (dose 2.00 uM) and −0.007 log2 fold change in assay [2] (dose 10.00 uM). Besides, the “Z.LYZ.NS (standard z score)” value in assay [2] (dose 0.08 uM) is reported as 0.391; in assay [2] (dose 0.40 uM), −0.082; in assay [2] (dose 2.00 uM) it was 0.498; in assay [2] (dose 10.00 uM), −0.063. Further, the Dose.FC.CTG in the assay on ENR+CD organoids (dose 0.08 uM) is 0.209 log2 fold change; in the assay on ENR+CD organoids (dose 0.40 uM), −0.010 log2 fold change; in the assay on ENR+CD organoids (dose 2.00 uM), −0.156 log2 fold change; with ENR+CD organoids (dose 10.00 uM) it was −0.114 log2 fold change. In addition, the “Z.CTG (standard z score)” value with ENR+CD organoids (dose 0.08 uM) is recorded as 0.498; with ENR+CD organoids (dose 0.40 uM), −0.024; with ENR+CD organoids (dose 2.00 uM) it was −0.373; in the assay with ENR+CD organoids (dose 10.00 uM) it was −0.272.
